In assay [1] the test system is GABAA receptor. The assay is described as follows: Voltage dependence of GABAAR block (Woodhull analysis). The following applies: Woodhull fit, Eq. 3; for Kd: read-out: KD(0), dissociation constant at 0 mV. In kind it is cell-based. The procedure: Voltage dependence of GABAAR block by UDCA was analysed according to the method of Woodhull, which provides a means of calculating the fraction of the transmembrane field sensed by charged blocking ligand at its acceptor site.

The test system of assay [2] is NMDA receptors. The experiment in a line: NMDA-evoked currents in isolated neurons. In kind it is cell-based. The following applies: D-AP5 100 µM. The procedure:
(§1) Recordings from histaminergic neurons in male Wistar rat (22–26 day old) or 30–60 day old mouse (SV129, histidine decarboxylase deficient HDC−/− or their wild type littermates) hypothalamic slices were performed as previously described. Slices were obtained between 9 and 11 a.m. In the beginning of whole-cell voltage clamp recordings TMN neurons were identified with the help of DIC microscopy and electrophysiological criteria as previously described. Inhibitory postsynaptic currents (IPSCs) were evoked by local stimulation through a bipolar stainless-steel stimulating electrode (50 µm; WPI, UK). The stimulation of axonal endings coming to TMN from ventrolateral preoptic area (VLPO) was done as described in [22]. Visual identification of histaminergic neurons recorded in cell-attached configuration (see [16]) was confirmed by the significant reduction of firing rate by the histamine 3 (H3) receptor agonist R-α-methylhistamine (0.2 µM), which was performed at the end of each experiment. Individual neurons were separated by vibrodissociation after brief preincubation with papain from the hypothalamic slices of mice or rats and identified as TMN neurons according to their size and shape. Identification was confirmed post hoc with the single-cell RT-PCR (all data presented in the manuscript were obtained from histidine decarboxylase-expressing neurons), [40]. TMN neurons from HDC−/− mice were identified by the expression of peripherin [16]. Whole-cell voltage-clamp recordings from isolated neurons were done with an EPC-9 amplifier and TIDA for Windows (HEKA, Lambrecht, Germany) at room temperature. Membrane potentials were not corrected for liquid junction potential (5.6 mV, calculated with LJPCalc, Barry, 1994). The intracellular solution was composed of (in mM) 140 KCl, 2 MgCl2, 0.5 CaCl2, 5 EGTA, 2 ATP and 10 HEPES (pH 7.2 adjusted with NaOH). A fast perfusion technique was used for application of ligands and modulators of fast ionotropic receptors, [41]. […] EC50 is the ligand concentration producing a half-maximal response, [ligand] is ligand concentration, and n is the Hill slope. Hill coefficients were obtained from the slope of the log/log plot of the dose-response curves. […] Steady-state amplitudes of the responses were used for the construction of dose-response plots if not mentioned otherwise.
For the testing of UDCA action at NMDA receptors a maximal 0.2 mM concentration of agonist was used. Recordings were done in Mg^2+ -free solution in the presence of 10 µM of glycine. NMDA-currents were abolished by the NMDA receptor antagonist D-AP5 (100 µM).

The test system of assay [3] is isolated TMN neurons (sIPSCs). The assay is described as follows: sIPSCs in acutely isolated and cultured neurons. In kind it is cell-based. Particulars: gabazine. The method, then:
as §1, with “Visual identification of histaminergic neurons recorded in cell-attached configuration (see [16]) was confirmed by the significant reduction of firing rate by the histamine 3 (H3) receptor agonist R-α-methylhistamine (0.2 µM), which was performed at the end of each experiment.” left out

Assay [4] relates to TMN neurons (eIPSCs and sIPSCs). The assay is described as follows: Spontaneous and evoked IPSCs in TMN neurons in brain slices. Particulars: gabazine 10 µM, n = 5. In kind it is cell-based, rat. The procedure: as §1, with “Visual identification of histaminergic neurons recorded in cell-attached configuration (see [16]) was confirmed by the significant reduction of firing rate by the histamine 3 (H3) receptor agonist R-α-methylhistamine (0.2 µM), which was performed at the end of each experiment.” left out

Assay [5] concerns the target T1, α1β2γ2L GABAA receptors (WT) (UniProt P22723+P62813+P63138).
T1 construct: expressed in transfected cells; host or cells: HEK293
The experiment in a line: Patch-clamp of recombinant wild-type α1β2γ2L GABAAR in HEK293 cells. Type of assay: cell-based, rat α1, rat β2, mouse γ2L. The following applies: pregnenolone sulphate 10 µM. The procedure:
(§2) HEK 293 cells were obtained from DSM (Deutsche Sammlung von Mikroorganismen und Zellkulturen GmbH, DSM, Braunschweig). They were grown and maintained according to published standard protocols. Briefly, cells were grown in minimal essential medium supplemented with 10% fetal bovine serum, 100units/ml penicillin and streptomycin and 2 mM L-glutamine and splitted once per week. Semiconfluent cells were transfected on the third day after splitting with the help of Lipofectamine 2000 (Invitrogen), recordings were done 48–72 hrs after transfection.
(§3) The GABAAR subunit cDNAs, generously donated by G.Gisselmann (rat α1, mouse γ2L, rat β1, β2 and human β3 [26]) and J.H. Steinbach (rat α1V256S [28] and rat α1Q241L [44]), were subcloned into pcDNA3 (Invitrogen, Karlsruhe, Germany) and applied in a ratio 1∶1∶1 for the α1βxγ2L receptor and 1∶1 for α1β3 or β3γ2L receptors. […] For each receptor type patch clamp recordings were obtained from at least three separate transfections. Whole-cell patch clamp recordings were done in a similar extracellular solution as for the native cells (see above) except that the concentration of MgCl2 was reduced to 1.2 mM. Intracellular electrodes contained 140 mM CsCl (instead of KCl), pH adjusted with CsOH. The voltage was held at −40 mV.

Assay [6] deals with T2, α1V256Sβ2γ2L GABAA receptors (UniProt P22723+P62813+P63138, V283S).
T2 construct: expressed in transfected cells; host or cells: HEK293
T2 sequence (P62813 28-455 V283S): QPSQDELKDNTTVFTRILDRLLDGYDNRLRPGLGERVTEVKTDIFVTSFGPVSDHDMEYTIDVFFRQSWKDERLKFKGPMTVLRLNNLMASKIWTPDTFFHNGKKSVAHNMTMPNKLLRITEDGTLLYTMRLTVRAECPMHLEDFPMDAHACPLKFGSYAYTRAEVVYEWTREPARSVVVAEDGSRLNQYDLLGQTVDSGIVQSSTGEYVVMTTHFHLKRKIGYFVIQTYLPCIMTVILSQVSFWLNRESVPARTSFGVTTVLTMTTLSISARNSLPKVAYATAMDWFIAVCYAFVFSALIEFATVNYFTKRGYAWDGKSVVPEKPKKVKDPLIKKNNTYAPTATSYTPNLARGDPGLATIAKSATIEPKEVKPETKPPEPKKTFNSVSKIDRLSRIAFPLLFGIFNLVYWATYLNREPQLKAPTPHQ
T2 sequence (P63138 25-474 limits assumed): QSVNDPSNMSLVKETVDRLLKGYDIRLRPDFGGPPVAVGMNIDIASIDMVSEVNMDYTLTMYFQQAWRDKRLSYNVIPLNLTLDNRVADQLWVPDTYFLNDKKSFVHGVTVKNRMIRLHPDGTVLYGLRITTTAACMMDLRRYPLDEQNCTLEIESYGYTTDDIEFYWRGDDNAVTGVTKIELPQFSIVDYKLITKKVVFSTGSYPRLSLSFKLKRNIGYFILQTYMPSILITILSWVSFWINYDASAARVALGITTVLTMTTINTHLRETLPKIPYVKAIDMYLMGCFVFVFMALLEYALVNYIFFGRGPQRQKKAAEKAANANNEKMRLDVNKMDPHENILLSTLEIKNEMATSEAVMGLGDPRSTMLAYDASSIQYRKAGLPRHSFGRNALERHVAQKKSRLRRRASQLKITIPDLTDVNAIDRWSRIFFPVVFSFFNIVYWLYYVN
T2 sequence (P22723 39-474): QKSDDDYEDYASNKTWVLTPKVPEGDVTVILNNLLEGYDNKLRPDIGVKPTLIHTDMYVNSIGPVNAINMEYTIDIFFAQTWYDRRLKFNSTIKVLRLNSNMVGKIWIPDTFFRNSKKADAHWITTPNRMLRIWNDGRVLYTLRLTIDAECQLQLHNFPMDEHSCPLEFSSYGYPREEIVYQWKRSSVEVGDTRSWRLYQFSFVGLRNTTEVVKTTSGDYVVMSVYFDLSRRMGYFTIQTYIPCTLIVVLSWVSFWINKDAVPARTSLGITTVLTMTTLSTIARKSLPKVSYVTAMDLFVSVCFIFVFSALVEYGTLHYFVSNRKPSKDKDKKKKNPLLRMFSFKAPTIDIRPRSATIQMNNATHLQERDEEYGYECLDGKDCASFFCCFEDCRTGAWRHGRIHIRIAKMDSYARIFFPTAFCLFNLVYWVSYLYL
The assay is described as follows: Patch-clamp of mutant α1V256Sβ2γ2L GABAAR in HEK293 cells. In kind it is cell-based, rat α1V256S, rat β2, mouse γ2L. Particulars: pregnenolone sulphate 10 µM. The method, then: as §2, §3
A general note: The patch-clamp technique gives a direct electrical read-out from membranes.

The subject of assay [7] is cultured hypothalamic neurons. The experiment in a line: Microelectrode array (MEA) recordings of cultured hypothalamic neurons. Type of assay: cell-based, mouse. Particulars: with GABAA receptor antagonist gabazine. The method, then: Primary dissociated cultures of posterior hypothalamus were prepared from newborn mice according to the protocols previously described, [43]. […] Recordings were done between 11th-21st day after plating. […] Signals from all 60 electrodes were simultaneously sampled at 25 kHz, visualized and stored using the standard software […] provided by Multi Channel Systems. Spike detection and analysis was performed offline with the software […] (RESULT Medizinische […], Germany), which uses the agreement coefficient “Cohen's kappa” (κ) to assess the degree of spike and burst synchrony for selected pairs of electrodes. […] In order to describe the distribution of kappa across the whole MEA, we calculated the mean of all kappa-values obtained for pairs of “active” electrodes. At the beginning of experiments the basal medium was replaced by a magnesium-free HEPES-based recording solution (see above) and measurements were started after a 20 min adaptation phase. Every measurement comprised three recordings - control, test substance and washout (second control) - each two minutes long and separated by an intermediate period of 30 seconds.

Assay [8] relates to native GABAA receptors. The experiment in a line: GABA-evoked whole-cell currents in acutely isolated TMN neurons (wild type). Type of assay: cell-based, mouse. The method, then: as §1, with “Visual identification of histaminergic neurons recorded in cell-attached configuration (see [16]) was confirmed by the significant reduction of firing rate by the histamine 3 (H3) receptor agonist R-α-methylhistamine (0.2 µM), which was performed at the end of each experiment.” left out

Assay [9] has as its system GABAA receptors of HDC−/− TMN neurons. The assay is described as follows: GABA-evoked whole-cell currents in TMN neurons from HDC−/− mice. Type of assay: cell-based, mouse. The procedure:
as §1, with “Visual identification of histaminergic neurons recorded in cell-attached configuration (see [16]) was confirmed by the significant reduction of firing rate by the histamine 3 (H3) receptor agonist R-α-methylhistamine (0.2 µM), which was performed at the end of each experiment.” left out

As a reminder, the Kd is the concentration at which binding is half-saturated. As usually defined, the EC50 is the midpoint of the concentration-response curve.

T1 sequence (P62813 28-455): as the sequence (P62813 28-455 V283S) above, with S256V counted along it
T1 sequence (P63138 25-474 limits assumed): as the sequence (P63138 25-474 limits assumed) above
T1 sequence (P22723 39-474): as the sequence (P22723 39-474) above

Consider `C[C@H](CCC(=O)O)[C@H]1CC[C@H]2[C@@H]3[C@H](O)C[C@@H]4C[C@H](O)CC[C@]4(C)[C@H]3CC[C@]12C` [CDOC, chenodeoxycholate], for which, in assay [1], the “fraction of the transmembrane field sensed at the acceptor site (f)” value was found to be 0.33±0.02 and the equilibrium dissociation constant (Kd) stood at 42 µM.
Take `NC(CCCP(=O)(O)O)C(=O)O` [D-AP5]: the NMDA-currents result in assay [2] is listed as “abolished”.
Take `COc1ccc(-c2ccc(=N)n(CCCC(=O)O)n2)cc1` [Gabazine, gabazine]: in [3], the “GABAergic sIPSCs in isolated TMN neuron” value is recorded as “abolished”. Further, the “eIPSCs and sIPSCs” value in assay [4] is reported as “abolished”.
As for `CC(=O)C1CCC2C3CC=C4CC(OS(=O)(=O)O)CCC4(C)C3CCC12C` (centres unmarked) [Pregnenolone sulphate, pregnenolone sulphate], the results for the “steady-state amplitude of maximal GABA-currents” value in assay [5] and in assay [6] were 11±3 % of control and 82±6 % of control, respectively.
With `C[C@H](CCC(=O)NCCS(=O)(=O)O)[C@H]1CC[C@H]2[C@@H]3[C@@H](O)C[C@@H]4C[C@H](O)CC[C@]4(C)[C@H]3CC[C@]12C` [TUDC, tauroursodeoxycholate], the “effect on synchronization in the presence of gabazine” value in [7] was “blanks the effect”.
For `C[C@H](CCC(=O)O)[C@H]1CC[C@H]2[C@@H]3[C@H](O)C[C@@H]4C[C@H](O)CC[C@]4(C)[C@H]3C[C@H](O)[C@]12C` [cholate], in [1], the “fraction of the transmembrane field sensed at the acceptor site (f)” value was 0.3±0.02 and the Kd amounted to 710 µM.
For `C[C@H](CCC(=O)O)[C@H]1CC[C@H]2[C@@H]3C(=O)C[C@@H]4CC(=O)CC[C@]4(C)[C@H]3CC(=O)[C@]12C` [dehydrocholate], in that order: 0.33±0.03 and 1400 µM.
For `CC1CC(C)(c2ccccc2)OC(C)O1` (centres unmarked) [vertacetal], the 50% effective concentration (EC50) stood at 13.4 ± 2.6 µM in assay [8] (wild type neurons, n = 5, read-out: EC50 of GABAAR modulation by vertacetal) and 9.2 ± 3 µM in [9] (HDC−/− neurons, n = 5, read-out: EC50 of GABAAR modulation by vertacetal).
In the case of `Cc1ccc(-c2nc3ccc(C)cn3c2CC(=O)N(C)C)cc1` [zolpidem], the “modulation of GABAAR, HDC+/+ versus HDC−/− TMN neurons” value in [9] is “No difference”.
Turning to picrotoxin, the “use dependence of block of GABA currents” value in assay [8] is “use-dependent block”. Also, the “reversibility of block of GABA currents” value in assay [8] (GABA 10 µM, 1 s) is recorded as “not fully reversible”.

(Values after PMC3412845, “Waking Action of Ursodeoxycholic Acid (UDCA) Involves Histamine and GABAA Receptor Block” (PLoS ONE, 2012).)
